According to patent US9492447B2, “Cannabinoid receptor modulators” (Arena Pharmaceuticals, Inc., priority 2011, dated 2016):

Experiments:
Type in all cases: in vivo, rat
[1] = test system: paclitaxel-induced allodynia in Sprague Dawley rats; experiment: Paclitaxel-induced allodynia; conditions: 10 mg/kg orally
Procedure: Therapy however is often associated with the unwanted side affects of painful peripheral neuropathy.
Male Sprague Dawley rats [200-250 g](Harlan Laboratories Inc., Livermore, Calif.) were housed three per cage and maintained in a humidity-controlled (40-60%) and temperature-controlled (68-72° F.) facility on a 12 h: 12 h light/dark cycle (lights on at 6:30 am) with free access to food (Harlan Teklad, Orange, Calif., Rodent Diet 8604) and water. Rats were allowed one week of habituation to the animal facility before starting treatment.
Rats were treated intraperitoneally, with 2 mg/kg of paclitaxel (Sigma Aldrich, Saint Louis, Mo.) in 10% Cremophor vehicle (500 μL) on days 0, 2, 4, and 6.
Tactile allodynia was tested using von Frey filaments. Briefly, the von Frey assay was performed using the standardized up down method with von Frey filaments, that determine the tactile sensitivity of the paw. By applying the increasingly or decreasingly thicker filaments to the paw in a logarithmic scale of actual force, a linear scale of perceived intensity is determined.
Eight days after the start of paclitaxel dosing, a baseline measurement (von Frey assay) was performed prior to dosing of compounds. […] As a positive control, rats were dosed intraperitoneally with 100 mg/kg gabapentin in water. The dosing volume for oral and peritoneal treatment was 500 μL. […]

[2] = test system: MIA model of osteoarthritis in rats; experiment: Monosodium iodoacetate (MIA) model of osteoarthritis pain; conditions: 3, 10 and 30 mg/kg orally; one hour after dosing; FIG. 2
From the text: Injection of monosodium iodoacetate (MIA) into a joint (Kalbhen, 1987) inhibits the activity of glyceraldehyde-3-phosphate dehydrogenase in chondrocytes, resulting in disruption of glycolysis and eventually in cell death. The progressive loss of chondrocytes results in histological and morphological changes of the articular cartilage, closely resembling those seen in osteoarthritis patients.
The osteoarthritis was induced in 200 g male Sprague Dawley rats. […]
Typically during disease progression, there was an inflammation period of 0-7 days post-intra-articular injection followed by progressive degeneration of the cartilage and subchondral bone from days 14-55. […] Tactile allodynia was measured via von Frey assay, hind limb paw weight distribution was monitored using an incapacitence tester (Columbus Instruments, Columbus, Ohio, USA) and hind limb grip strength was measured using a grip strength meter (Columbus Instruments, Columbus, Ohio, USA). […] Hind paw weight distribution was determined by placing rats in a chamber so that each hind paw rests on a separate force plate of the incapacitence tester. The force exerted by each hind limb (measured in grams) is averaged over a 3 second period. Three measurements were taken for each rat, and the change in hind paw weight distribution calculated. […]

[3] = test system: FCA-induced hyperalgesia in rats; experiment: FCA-induced hyperalgesia model of inflammatory pain; conditions: 0.1, 1, 3, 10 and 30 mg/kg orally; 1 h post dosing; Analgesy-Meter; FIG. 1
Procedure: Male Sprague Dawley rats from Harlan (200-225 g when received) were used. Upon arrival, rats were housed 4 per cage in shoe-box polycarbonate cages with wire tops, wood chip bedding and suspended food and water bottles. Animals were acclimated for 5-7 days prior to being injected with Freund's complete adjuvant (FCA) (Sigma; catalog #5881).
2 days (48 h) before testing compounds, baseline readings of all rats were taken right before FCA injection. Rats were then injected with 50 μL FCA containing 1 mg/mL Mtb (Mycobacterium tuberculosis) in right hind footpad under inhalation anesthesia (isoflurane). 48 hours after FCA injection, readings were taken as pre-dosing baseline and then rats were dosed orally with 0.5 mL of vehicle or compound (0.5 mL per 250 g rat). Readings were taken again at 1 h post dosing. All readings were taken with an Analgesy-Meter (Ugo Basile) which measures mechanical hyperalgesia via paw pressure.
FCA-induced hyperalgesia was tested with an Analgesy-Meter. Briefly, the Analgesy Meter applied an increasing pressure to the right hind paw. The paw withdrawal threshold was the pressure leading to withdrawal.
Meanwhile a group of rats were dosed orally with 50 mg/kg of Diclofenac as a positive control. Readings were taken again at 1 h post dosing. Dosing volume was 500 μL per 250 g rat.

## CC(C)(CO)NC(=O)c1nn(-c2ccc(F)cc2F)c2c1C[C@H]1C[C@@H]21 [Compound 493, (1aR,5aR)-2-(2,4-Difluoro-phenyl)-1a,2,5,5a-tetrahydro-1H-2,3-diaza-cyclopropa[a]pentalene-4-carboxylic Acid (2-Hydroxy-1,1-dimethyl-ethyl)-amide]
[1]; time course
  time of maximum efficacy post-dosing: 1 h
[1]; von Frey 30, 60 and 180 minutes after dosing, FIG. 3
  increase in paw withdrawal threshold (PWT) in comparison with vehicle and gabapentin: exhibiting therapeutic efficacy
[2]
  Increase in paw withdrawal threshold (PWT) in comparison with vehicle: exhibiting therapeutic efficacy
[3]
  increase in paw withdrawal threshold (PWT) in comparison with the vehicle: exhibited therapeutic efficacy
